Measured values published in publication PMC10223997, “Screening and Elucidation of Chemical Structures of Novel Mammalian α-Glucosidase Inhibitors Targeting Anti-Diabetes Drug from Herbals Used by E De Ethnic Tribe in Vietnam” (Pharmaceuticals, 2023).
≈ marks a conversion by molar mass, not a printed value.

Target: Rat α-Glucosidase
Assay: Alpha-glucosidase inhibition assay (rat intestinal acetone powder, pNPG substrate)
Type: biochemical
Settings: for IC50 / maximum inhibition: purified compounds and acarbose, Figure 2
Method: • - Enzyme solution preparation: Enzyme solution was then sonicated 24 times, each for 12 s at 4 °C, and then centrifuged for 20 min at 10,000× g, 4 °C. The residue part was re-suspended twice with 15 mL of the same buffer (0.1 mol/L NPB, pH 7), as described above. All supernatants were mixed together and dialyzed for a half day at 4–6 °C to obtain the enzyme solution, which was then used for further analyses. • - Reaction and estimation of inhibitory activity: The enzyme inhibition assay was done according to Kwon et al. 2006 [40] with slight modification. The enzyme solution (50 µL) and the sample solution (50 µL) were mixed in 150 μL of 0.1 mol/L NPB, pH 7. This mixture was pre-incubated at 37 °C for 15 min. The reaction was started by adding 50 μL of the substrate pNPG (10 mmol/L) into this mixture solution, and this duration was kept at 37 °C for 30 min, then 325 μL of 1 mol/L Na2CO3 solution were added to terminate the reaction. This absorption of the final solution was measured at 410 nm (namely, E) using a UV spectrometer (UV-2550, Shimadzu, Japan) to estimate the enzymatic activity, and the control experiment was also conducted similarly, but instead of the inhibitor solution, 50 μL 0.1 mol/L potassium phosphate buffer (pH 7) and the absorbance was measured at 410 nm (namely, C). The inhibitory effect (%) was calculated using the equation below:
α-Glucosidase inhibition (%) = (C − E)/C × 100, where E denoted the optical density of the solution reaction in the presence of both α-glucosidase and the sample, and C is the optical density of the reaction blank.

SMILES	IC50 [mg/L]	maximum inhibition	Inhibition of Rat α-Glucosidase % (MeOH extracts of medicinal plants and acarbose, Table 1) [%]	Inhibition of Rat α-Glucosidase IC50 (MeOH extracts of medicinal plants and acarbose, listed as Acarbose) [mg/L]	Inhibition of Rat α-Glucosidase IC50 (MeOH extracts of medicinal plants and acarbose, listed as acarbose) [mg/L]
O=C(O)c1cc(O)c(O)c(O)c1 [GA, gallic acid]	973 (≈ 5.72 mM)	80%			
Oc1cc(O)c2c(c1)O[C@H](c1ccc(O)c(O)c1)[C@H](O)C2 [ECC, (−)-epicatechin]		84–85%			
C[C@@H]1O[C@@H](Oc2cc3c(=O)oc4c(O)c(O)cc5c(=O)oc(c2O)c3c45)[C@H](O)[C@H](O)[C@H]1O [EWC, eschweilenol C]	191 (≈ 0.426 mM)	93%			
C[C@H]1O[C@H](O[C@H]2[C@H](O)[C@@H](O)[C@@H](O[C@H]3[C@H](O)[C@@H](O)C(O)O[C@@H]3CO)O[C@@H]2CO)[C@H](O)[C@@H](O)[C@@H]1N[C@H]1C=C(CO)[C@@H](O)[C@H](O)[C@H]1O (stereo partly drawn) [AC, acarbose, reference compound]		84–85%	92	310	309
